Measurements reported in ChEMBL document CHEMBL3507680, “University of Dundee, Gates Library screen for HepG2 cell viability”.

Assay: Human HepG2 cell viability assay in 384 well format
Type: toxicity, cell-based
Set-up: dose 125 nL, time 70.5 hour; concentration not given beside the values
Conditions: HepG2 cells, read-out: Inhibition

In the case of `COc1ccccc1CC1CCN(C(=O)CCc2ccccn2)CC1`, the cytotoxicity at 70.5 h is reported as -8.07%.
In the case of `CCC(C)[C@H](N)c1nnc(SCC(=O)Nc2cc(C)ccc2C)o1` (stereo partly specified), the cytotoxicity at 70.5 h is reported as -1.84%.
With `NC(=O)C1(c2cnccn2)CCCN1Cc1ccc(Cl)c(F)c1` (stereo unspecified) the cytotoxicity at 70.5 h was -5.01%.
With `CC(C)Oc1cccc(Cc2nc3c([nH]2)CCCNC3=O)c1` the cytotoxicity at 70.5 h was -4.78%.
For `Cc1cnc(C(=O)N2CCCC(n3cncn3)C2)cn1` (stereo unspecified), the cytotoxicity at 70.5 h was -4.15%.
For `CC(NCc1ccncc1)c1cc(F)ccc1N1CCN(C)CC1` (stereo unspecified), the cytotoxicity at 70.5 h was -4.5%.
Work on `CCc1cc(C(=O)N2CCc3nc4c(C)csc4c(=O)n3CC2)on1` yielded a cytotoxicity at 70.5 h of 20.2%.
Compound `O=C(c1ccccn1)N1CCC2(CC1)COC(COCC1CCCC1)C2` (stereo unspecified) has a cytotoxicity at 70.5 h of -13.8%.
`CC(C)Nc1nc2c(c(NC3CC3)n1)CCN(C(=O)C1CCOC1)CC2` (stereo unspecified) gave a cytotoxicity at 70.5 h of 1.81%.
In the case of `Cc1nc2cc(C(=O)N(CCC#N)CCC#N)ccc2n1C`, the cytotoxicity at 70.5 h is reported as -6.33%.
In the case of `Cc1ccc(CN2CCOC3(COCCN(Cc4ccncc4)C3)C2)o1` (stereo unspecified), the cytotoxicity at 70.5 h is reported as -13.7%.
`Cc1ncsc1CCCNC(=O)C1CC2(CCNCC2)CN1C` (stereo unspecified) showed a cytotoxicity at 70.5 h of 13%.
For `O=C1CCC(=O)N1CCn1nnc(-c2ccc(Br)cc2)n1`, the cytotoxicity at 70.5 h was -2.01%.
Work on `Cn1ncnc1CCNC(=O)c1cc(Cl)c(Cl)n1C` yielded a cytotoxicity at 70.5 h of -2.76%.
Work on `Cc1cc(C)n(CC2CCCCN2CC(=O)Nc2ccncc2)n1` (stereo unspecified) yielded a cytotoxicity at 70.5 h of -0.378%.
With `NC(=O)CN1CCCN(C(=O)c2ccc(SC(F)F)cc2)CC1` the cytotoxicity at 70.5 h was -6.46%.
Work on `Cc1ccc(S(=O)(=O)N2CCC3(CC(C(=O)NCC(C)C)=NO3)C2)cc1` (stereo unspecified) yielded a cytotoxicity at 70.5 h of 7.95%.
For `COCCNC(=O)C(C)n1nc(-c2ccc(C)o2)cc(N)c1=O` (stereo unspecified), the cytotoxicity at 70.5 h was 39.4%.
`Cn1cc(CN2C[C@@H](N3CCCC3=O)[C@H]3OCCC[C@H]32)cn1` showed a cytotoxicity at 70.5 h of -3.55%.
With `O=C(C1CC1)N1CCC2(COCc3cnc(N4CCOCC4)nc32)C1` (stereo unspecified) the cytotoxicity at 70.5 h was -12.6%.
With `CSc1cccc(CN(C)C(=O)CN2CCN(c3ncccn3)CC2)c1` the cytotoxicity at 70.5 h was -8.23%.
For `O=C(c1ccc(-n2ccnc2)nc1)N1CCCC(n2cccn2)C1` (stereo unspecified), the cytotoxicity at 70.5 h was 1.69%.
`CC(C)(CN1CCOCC1)CN1CCC(Cc2cccc(CO)c2)C1` (stereo unspecified) showed a cytotoxicity at 70.5 h of 17.8%.
Work on `COc1cc2c(cc1OC)C(=O)C(Sc1nnnn1C)C2` (stereo unspecified) yielded a cytotoxicity at 70.5 h of -18.6%.
With `Cc1nc(C)n(C2CCCN(C(=O)c3cc4ccccc4n3C)C2)n1` (stereo unspecified) the cytotoxicity at 70.5 h was -1.56%.
For `Cc1nc(C(C)N(C)Cc2nc(CCC(C)C)no2)c(C)s1` (stereo unspecified), the cytotoxicity at 70.5 h was 0.293%.
With `CNc1ncc(CN(C)c2nc(C)c3ccc(S(C)(=O)=O)cc3n2)cn1` the cytotoxicity at 70.5 h was -6.87%.
`COCC(=O)N1CCC2(COCc3cnc(NCc4ccco4)nc32)C1` (stereo unspecified) showed a cytotoxicity at 70.5 h of -2.26%.
With `Cc1nn(C)c(C)c1C1CCCN1C(=O)c1cnc2n[nH]c(C)c2c1` (stereo unspecified) the cytotoxicity at 70.5 h was -7.81%.
Compound `CCSc1ccc(C(=O)NCCc2nnc(-c3ccco3)[nH]2)cn1` has a cytotoxicity at 70.5 h of -6.64%.
`Cc1nc(COC[C@H]2CCC[C@@]23CN(C(C)C)CCO3)cs1` gave a cytotoxicity at 70.5 h of -6.88%.
Work on `CC(C)NC(=O)c1noc2c1CN(Cc1cnn(C)c1)CC2` yielded a cytotoxicity at 70.5 h of -5.58%.
For `Cc1cccc(-c2ncc(CNC(C)Cc3ncccc3C)cn2)c1` (stereo unspecified), the cytotoxicity at 70.5 h was 48.7%.
In the case of `CN(CCC1CCCCO1)c1nncc(-c2ccccc2)n1` (stereo unspecified), the cytotoxicity at 70.5 h is reported as -0.965%.
With `O=C1[C@@H]2CCN(CC3CCOCC3)C[C@@H]2OCCN1c1ccccc1` the cytotoxicity at 70.5 h was 1.16%.
With `CN1CC(=O)N(C2CCNCC2)Cc2c(NC3CCC3)ncnc21` the cytotoxicity at 70.5 h was -7.06%.
Compound `CCCn1c(C)c(CC(=O)NCCNC(C)=O)c2c1CC(C)(C)CC2=O` has a cytotoxicity at 70.5 h of 1.34%.
For `Cc1cccc(NC(=O)CN2C(=O)CC(C)(C)c3ccccc32)n1`, the cytotoxicity at 70.5 h was -8.87%.
Work on `COc1ncc(C2(O)CCN(Cc3cccs3)CC2)c(OC)n1` yielded a cytotoxicity at 70.5 h of -8.54%.
Work on `O=C1N(Cc2ccc(F)c(F)c2)CCCC12CCN(C1CCCCC1)C2` (stereo unspecified) yielded a cytotoxicity at 70.5 h of 1.47%.
In the case of `Cn1ccc2ccc(C(=O)N3CC[C@@]4(O)CCCC[C@H]4C3)cc21`, the cytotoxicity at 70.5 h is reported as 7.95%.
With `CNC(=O)c1noc(CN2CC[C@](C)(O)[C@H](C)C2)n1` the cytotoxicity at 70.5 h was -8.07%.
For `c1ccc(CCN2CCCC2c2ccnc(Nc3ncccn3)n2)cc1` (stereo unspecified), the cytotoxicity at 70.5 h was -5.57%.
`CS(=O)(=O)NCCc1cccc2cccnc12` showed a cytotoxicity at 70.5 h of 25.3%.
`CCn1ncnc1C(C)NC(=O)CC1CCN(C(C)C)CC1` (stereo unspecified) gave a cytotoxicity at 70.5 h of 30%.
With `Cc1ccc(CNCc2ccc(-n3nc(C)cc3C)nc2)cc1` the cytotoxicity at 70.5 h was -6.83%.
`CC(=O)N1CCCN(CCCSCc2ccccc2)CC1` showed a cytotoxicity at 70.5 h of -6.67%.
`Cc1nc(N2CCN(C)CC2)ncc1C(=O)N1CCC(O)(CO)CC1` showed a cytotoxicity at 70.5 h of -6.38%.
For `O=C(CCn1nc(C(F)(F)F)c(Cl)c1C1CC1)NN1CCOCC1`, the cytotoxicity at 70.5 h was -1.82%.
In the case of `O=c1oc(-c2ccc(F)cc2)nn1CCc1ccccn1`, the cytotoxicity at 70.5 h is reported as 2.48%.
In the case of `CC(C)(C)c1ccc(C2(C(=O)NCCCS(C)(=O)=O)CC2)cc1`, the cytotoxicity at 70.5 h is reported as -1.31%.
For `Cc1nn(C)c(C)c1CNCc1ccnc(N2CCOCC2)c1`, the cytotoxicity at 70.5 h was 31.5%.
In the case of `COc1ccc(NC(C)c2nnnn2-c2ccccc2)cn1` (stereo unspecified), the cytotoxicity at 70.5 h is reported as -96.1%.
Compound `Cc1cnn(CCNCC(O)COc2cc(Cl)ccc2Cl)c1` (stereo unspecified) has a cytotoxicity at 70.5 h of -14.6%.
For `CC(NC(=O)c1ccc(C#N)cn1)C1(N2CCOCC2)CCCC1` (stereo unspecified), the cytotoxicity at 70.5 h was -7.03%.
For `Cc1noc(C2CCCN(C(=O)c3cc(Cl)c(Cl)n3C)C2)n1` (stereo unspecified), the cytotoxicity at 70.5 h was -6.05%.
